One block for each molecule: values may come before it.
Assays:
[1] = tested on: Rattus norvegicus; assay: Anti-inflammatory activity in rat assessed as inhibition of formalin-induced paw edema administered as po dose pretreated for 1 hr followed by formalin addition measured up to 6 hrs relative to control; type: functional
[2] = tested on: MCF7; assay: Cytotoxicity against human MCF7 cells after 48 hrs by MTT assay; type: functional, cell-based; settings: MCF7, 48 h
[3] = tested on: Rattus norvegicus; assay: Anti-inflammatory activity in rat assessed as inhibition of formalin-induced paw edema at 20 mg/kg, po pretreated for 1 hr followed by formalin addition measured up to 6 hrs relative to control; type: functional
[4] = Anti glycation activity assessed as inhibition of BSA glycation after 7 days in presence of glucose by spectrofluorimetry assay; type: functional
[5] = Antioxidant activity assessed as DPPH radical scavenging activity after 30 mins; type: functional
[6] = Hemolytic activity in human RBC relative to control; type: cell-based, Erythrocyte; settings: red blood cells (erythrocytes), read-out: Activity

SMILES: O=C(Nc1nc2ccccc2[nH]1)c1cc2ccccc2oc1=O
inhibition (INH) [1]: 42.85%

SMILES: Cc1nnc(N2C(=O)CSC2c2ccccc2[N+](=O)[O-])s1 (centres undefined)
IC50 [2]: 46.3 µM

SMILES: COc1ccc2c(c1)c(CC(=O)O)c(C)n2C(=O)c1ccc(Cl)cc1 [INDOMETHACIN]
inhibition in vivo at 20 mg/kg [3]: 54.5%

IC50 [4]: 240 µM
IC50 [5]: 72.5 µM
SMILES: Oc1ccc(O)c(-c2nc3ncc(Cl)cc3[nH]2)c1

SMILES: O=c1oc2ccc(Cl)cc2cc1-c1nc2ccccc2[nH]1
inhibition (INH) [1]: 46.75%

IC50 [4]: 240 µM
IC50 [5]: 58.1 µM
SMILES: Oc1ccc(-c2nc3ncc(Cl)cc3[nH]2)c(O)c1

SMILES: O=C(Cc1cc(=O)oc2cc(O)ccc12)Nc1nc2ccccc2o1
hemolysis [6]: 92.5%

From ChEMBL document CHEMBL4364277, “Medicinal prospects of antioxidants: A review” (Eur J Med Chem, 2019)
